# Experiments:
# [1] = test system: S. aureus (ATCC 6538); assay: Modified EN 1656 dilution neutralization test, milk as interferent, 30 seconds contact; format: cell-based, Staphylococcus aureus; conditions: 10% lactic acid used alone, typical
# Experimental: (§1) The test bacteria were Eschericia coli (ATCC 11229), which were originally isolated from mastitis infection and obtained on commercial order from Mastitlaboratoriet, SVA, and Staphococcus aureus (ATCC6538 from Microbiologics, St. Cloud, Minn.), which was also isolated from mastitis infection.
# (§2) According to a modified EN1656 dilution neutralization method, freeze dried E. coli (ATCC 11229) and S. aureus (ATCC 6538) were hydrated, grown for four days and transferred. Then bacteria were diluted to form a suspension to have an initial concentration of about 10^8 cfu/mL.
# (§3) Freeze-dried pellets of E. coli (ATCC 11229) and S. aureus (ATCC 6538) were hydrated, placed in test tubes containing nutrient agar and incubated at 37° C. for 24 hours. Sterile buffer (0.25 M phosphate adjusted to pH 7.2) was used to dilute and transfer the bacteria to additional nutrient agar tubes, which were incubated for another 24 hours. S. aureus was then diluted with buffer and transferred to nutrient agar in French bottles, and E. coli was diluted and transferred to fresh nutrient agar tubes. Both types of bacteria were incubated at 37° C. for 72 hours. E. coli was then diluted and transferred to nutrient agar in French bottles. […]
# (§4) The plates with bacterial populations between 25 and 250 were counted and results were expressed as logarithmic reductions according to EN 1656 test method.
# [2] = test system: E. coli (ATCC 11229); assay: as above; format: cell-based, Escherichia coli; conditions: 10% lactic acid used alone, typical
# Experimental: as §1, §2, §3, §4
compound,measurement,setting,value
"CC(O)C(=O)O (stereo not drawn) [lactic acid, L(+)-2-Hydroxypropanoic acid]",log reduction in S. aureus concentration,[1],less than a three log reduction
same,log reduction in E. coli concentration,[2],five log reduction
